From patent publication US7572923B2, “Indirubin derivatives having anticancer property against human cancer cell line” (Anygen Co., Ltd., priority 2004, dated 2009)

Tests used:
[1] = test system: human colon cancer cell line (Col2); test: Inhibition of cancer cell line proliferation, Col2; type: cell-based; details: 96 h, 3˜4 days incubation, absorbance at 515 nm
Description: (§1) For measuring the proliferation inhibition by indirubin compound, the method disclosed in K. Likhitwitayawuid et al. Journal. Nat. Prod. […] Followings are simple description of this method. The cancer cell line is diluted into 5×10^4 cfu/ml. Then, various concentrations of test compounds are added to 96 well microtiter plate containing diluted cell line. After incubating test plate for 3˜4 days at 37° C., the test plate is dried and Tris-base is added. Then, using ELISA plate detector, the absorbance at 515 nm is measured. IC50 is measured by non-linear regression method.

[2] = test system: human leukemia cell line (HL-60); test: Differentiation with low concentration 1,25-(OH)2D3 or ATRA, NBT reduction method; type: cell-based; details: for % of Differentiation, 1,25-(OH)2D3: 1 μM compound with 5 nM of 1,25-(OH)2D3; for % of Differentiation, all-trans RA: 1 μM compound with 50 nM of ATRA
Description: (§2) For measuring the differentiation inducing effect to acute bone merrow leukemia cell line (HL-60) by indirubin AGM compound, NBT (nitroblue tetrazolium) reduction reaction method is employed. The leukemia cell line is diluted into 2×10^5 cfu/ml. After treating 20 μM and 1 μM concentrations of test compounds, test plate is incubated for 3 days at 37° C. in 5% CO2 incubator. Incubated cells are washed with phosphate buffered saline (PBS). Then, they are further incubated in PBS solution containing 0.1% NBT and 200 ng/ml of PMA (phorbol 12-myristate 13-acetate) for 30 minutes at 37° C. Incubated cells are centrifuged and collected cells are washed with PBS solution. Using cell number counter, differentiated cells forming nitroblue formazan among total cells are counted.
Next, we test if AGM compound of present invention can synergically induce the differentiation of acute bone merrow leukemia cell line when it is treated with low concentration of 1,25-dihydroxyvitamin D3[1,25-(OH)2D3] or all-trans retinoic acid (ATRA) known as differentiation inducing agent. […] […] As a positive control, conventional differentiation inducing agent is used.

[3] = test system: human lung cancer cell line (A549); test: Inhibition of cancer cell line proliferation, A549; type: cell-based; details: 96 h, 3˜4 days incubation, absorbance at 515 nm
Description: as §1

[4] = test system: human leukemia cell line (HL-60); test: Inhibition of cancer cell line proliferation, HL-60; type: cell-based; details: HL-60, 96 h, HL60, 3˜4 days incubation, absorbance at 515 nm
Description: as §1

[5] = test system: leukemia cell line (HL-60); test: Differentiation inducing effect, NBT reduction method; type: cell-based, human; details: 3 days
Description: as §2, with “After treating 20 μM and 1 μM concentrations of test compounds, test plate is incubated for 3 days at 37° C. in 5% CO2 incubator.” left out

[6] = test system: human stomach cancer cell line (SNU-638); test: Inhibition of cancer cell line proliferation, SNU-638; type: cell-based; details: 96 h, 3˜4 days incubation, absorbance at 515 nm
Description: as §1

[7] = test system: human cell line (HT 1080); test: Inhibition of cancer cell line proliferation, HT 1080; type: cell-based; details: HT-1080, 96 h, read-out: IC50 HT108
Description: as §1

[8] = test system: human abdominal cavity cancer cell line (HT 1080); test: as above; type: cell-based; details: HT-1080, 96 h, HT108, 3˜4 days incubation, absorbance at 515 nm
Description: as §1

| SMILES | IC50 [1] [µM] | % of Differentiation, 1,25-(OH)2D3 [2] [%] | % of Differentiation, all-trans RA [2] [%] | IC50 [3] [µM] | IC50 [4] [µM] | % of Differentiation ([5]; 1 μM compound) [%] | % of Differentiation ([5]; 20 μM compound) [%] | IC50 [6] [µM] | IC50 [7] [µM] | IC50 [8] [µM] |
| --- | --- | --- | --- | --- | --- | --- | --- | --- | --- | --- |
| O=C1Nc2ccc(Cl)cc2C1=C1Nc2ccccc2C1=O [AGM025, 5′-chloro-1H,1′H-[2,3′] biindolylidene-3,2′-dione] | > 100 | 49.41 ± 0.08 | 48.39 ± 1.48 | > 100 | > 100 | 26.18 ± 0.59 | 14.40 ± 0.82 | > 100 | > 100 |  |
| O=C1Nc2ccc(OC(F)(F)F)cc2C1=C1Nc2ccccc2C1=NO [AGM004] |  | 26.36 ± 3.05 | 28.68 ± 0.23 |  |  | 22.81 ± 2.38 |  |  |  |  |
| O=C1Nc2ccccc2C1=C1Nc2ccc(Br)cc2C1=NO [AGM018, 5-bromo-1H,1′H-[2,3′] biindolylidene-3,2′-dione 3-oxime] | 10.5 | 36.52 ± 1.27 | 23.13 ± 0.71 | 38.6 | 25 | 8.69 ± 4.95 |  | 32.9 |  | 73.6 |
| O=C1Nc2ccc([N+](=O)[O-])cc2C1=C1Nc2ccc(Br)cc2C1=O [AGM022] |  | 48.28 ± 0.36 | 51.20 ± 3.70 |  |  | 18.35 ± 0.02 | 22.89 ± 0.51 |  |  |  |
| O=C1Nc2ccccc2C1=C1Nc2ccccc2C1=O [AGM001, 1H,1′H-[2,3′] biindolylidene-3,2′-dione] | > 100 | 28.36 ± 0.15 | 39.61 ± 1.25 | 31 |  | 7.76 ± 3.42 | 10.00 ± 0.27 | > 100 |  | 42.2 |
| O=C1Nc2ccccc2/C1=C1/Nc2ccccc2C1=O [Indirubin] |  | 26.39 ± 0.98 | 44.87 ± 2.54 |  |  | 15.28 ± 1.12 | 1.18 ± 0.18 |  |  |  |
| Cc1ccc2c(c1)C(=C1Nc3ccccc3C1=NO)C(=O)N2 [AGM013, 5′-methyl-1H,1′H-[2,3′] biindolylidene-3,2′-dione 3-oxime] | > 100 | 35.49 ± 5.45 | 70.54 ± 2.17 | 20.4 | 65.4 | 26.22 ± 2.04 |  | 17.6 |  | 36.7 |
| O=C1Nc2ccc([N+](=O)[O-])cc2C1=C1Nc2ccccc2C1=O [AGM009, 5′-nitro-1H,1′H-[2,3′] biindolylidene-3,2′-dione] | > 100 | 48.51 ± 3.49 | 59.32 ± 1.54 | > 100 | > 100 | 19.94 ± 2.02 | 29.26 ± 1.59 | > 100 |  | > 100 |
| O=C1Nc2ccccc2C1=C1Nc2ccc(Br)cc2C1=O [AGM021, 5-bromo-1H,1′H-[2,3′] biindolylidene-3,2′-dione] | > 100 | 24.64 ± 0.65 | 28.23 ± 0.02 | > 100 | > 100 | 11.63 ± 3.48 | 9.64 ± 0.51 | > 100 |  | > 100 |
| O=C1Nc2ccc(I)cc2C1=C1Nc2ccccc2C1=O [AGM026, 5′-iodo-1H,1′H-[2,3′] biindolylidene-3,2′-dione] | > 100 | 44.43 ± 0.09 | 60.33 ± 0.51 | > 100 | > 100 | 29.84 ± 1.12 | 22.23 ± 0.60 | > 100 | > 100 |  |
| O=C1Nc2ccc(OC(F)(F)F)cc2C1=C1Nc2ccccc2C1=O [AGM003] |  | 22.04 ± 0.38 | 41.01 ± 1.26 |  |  | 6.27 ± 1.76 | 10.36 ± 0.29 |  |  |  |
| Cc1cc(Cl)cc2c1NC(=O)C2=C1Nc2ccccc2C1=O [AGM028, 5′-chloro-7′-methyl-1H,1′H-[2,3′] biindolylidene-3,2′-dione] | > 100 | 35.22 ± 0.55 | 55.57 ± 1.11 | > 100 | > 100 | 8.85 ± 2.20 | 0.70 ± 0.16 | > 100 | > 100 |  |
| O=C1Nc2ccc(I)cc2C1=C1Nc2ccccc2C1=NO [AGM015, 5′-iodo-1H,1′H-[2,3′] biindolylidene-3,2′-dione 3-oxime] | > 100 | 33.27 ± 0.75 | 67.41 ± 1.36 | > 100 | > 100 | 30.50 ± 4.97 |  | > 100 |  | > 100 |
| O=C1Nc2ccc(S(=O)(=O)[O-])cc2C1=C1Nc2ccccc2C1=NO.[Na+] [AGM020, 3-hydroxyimino-2′-oxo-1,3,1′,2′-tetrahydro-[2,3′] biindolylidene-5′-sodium sulfonate] |  | 23.34 ± 0.65 | 34.50 ± 2.91 |  |  | 11.34 ± 2.32 | 23.86 ± 1.31 |  |  |  |
| Cc1cc(C)c2c(c1)C(=C1Nc3ccccc3C1=NO)C(=O)N2 [AGM016, 5′,7′-dimethyl-1H,1′H-[2,3′] biindolylidene-3,2′-dione 3-oxime] | > 100 | 27.24 ± 1.32 | 33.99 ± 0.47 | > 100 | > 100 | 3.07 ± 1.69 | 10.35 ± 0.62 | 90.6 |  | > 100 |
| Cc1cc(Cl)cc2c1NC(=O)C2=C1Nc2ccccc2C1=NO [AGM017, 5′-chloro-7′-methyl-1H,1′H-[2,3′] biindolylidene-3,2′-dione 3-oxime] | > 100 | 22.10 ± 0.90 | 43.17 ± 1.56 | > 100 | > 100 | 8.37 ± 0.45 | 2.62 ± 0.23 | > 100 | > 100 |  |
| Nc1ccc2c(c1)C(=C1Nc3ccccc3C1=NO)C(=O)N2 [AGM031, 5′-amino-1H,1′H-[2,3′] biindolylidene-3,2′-dione-3-oxime] | 24.6 |  |  | 9.13 | 13 |  |  | 10 | 5.07 |  |
| O=C1Nc2ccc(S(=O)(=O)[O-])cc2C1=C1Nc2ccccc2C1=O.[Na+] [AGM019, 3,2′-dioxo-1,3,1′,2′-tetrahydro-[2,3′] biindolylidene-5′-sodium sulfonate] |  | 27.66 ± 1.28 | 51.49 ± 0.13 |  |  | 9.36 ± 0.13 | 12.44 ± 1.66 |  |  |  |
| O=C1Nc2ccccc2C1=C1Nc2ccccc2C1=NO [AGM002, 1H,1′H-[2,3′] biindolylidene-3,2′-dione 3-oxime] | > 100 | 24.52 ± 2.67 | 37.78 ± 1.06 | 62 |  | 11.12 ± 0.31 | 6.78 ± 0.40 | > 100 |  | 4.8 |
| CC(=O)N1C(=C2C(=O)Nc3ccccc32)C(=O)c2ccccc21 [AGM006, 1-acetyl-1H,1′H-[2,3′] biindolylidene-3,2′-dione] | > 100 | 19.60 ± 0.56 | 42.81 ± 1.05 | > 100 | > 100 | 9.99 ± 1.47 | 10.49 ± 0.25 | > 100 |  | > 100 |
